One assay concerns the target Histone deacetylase 1 (Homo sapiens, UniProt Q13547). Kind of assay: Inhibition of HDAC1 (unknown origin) incubated at 37 degC for 30 mins.
The target in another assay is Histone deacetylase 2 (Homo sapiens, UniProt Q92769). As to the kind of experiment: Inhibition of HDAC2 (unknown origin) incubated at 37 degC for 30 mins.
The next assay concerns the target Histone deacetylase 3 (Homo sapiens, UniProt O15379). As to the kind of experiment: Inhibition of HDAC3 (unknown origin) incubated at 37 degC for 30 mins.
A further assay deals with T1, Histone deacetylase 8 (Homo sapiens, UniProt Q9BY41).
T1 sequence (Q9BY41 whole entry): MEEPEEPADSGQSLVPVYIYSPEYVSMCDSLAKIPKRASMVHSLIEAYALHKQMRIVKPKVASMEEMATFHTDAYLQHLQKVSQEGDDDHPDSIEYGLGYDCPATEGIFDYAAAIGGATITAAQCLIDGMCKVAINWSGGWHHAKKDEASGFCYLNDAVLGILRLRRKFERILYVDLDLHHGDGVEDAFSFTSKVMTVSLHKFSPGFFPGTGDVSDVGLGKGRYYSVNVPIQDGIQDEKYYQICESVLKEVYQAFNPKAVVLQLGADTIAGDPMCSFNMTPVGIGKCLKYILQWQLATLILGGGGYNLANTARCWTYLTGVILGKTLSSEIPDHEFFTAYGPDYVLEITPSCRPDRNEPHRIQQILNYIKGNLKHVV
Kind of assay: Inhibition of HDAC8 (unknown origin) incubated at 37 degC for 30 mins.

Drawing on ChEMBL document CHEMBL3352389, “Evaluation of class I HDAC isoform selectivity of largazole analogues” (Bioorg Med Chem Lett, 2014), this text covers IC50 for nine compounds.

Histone deacetylase 2, sequence (Q92769 whole entry): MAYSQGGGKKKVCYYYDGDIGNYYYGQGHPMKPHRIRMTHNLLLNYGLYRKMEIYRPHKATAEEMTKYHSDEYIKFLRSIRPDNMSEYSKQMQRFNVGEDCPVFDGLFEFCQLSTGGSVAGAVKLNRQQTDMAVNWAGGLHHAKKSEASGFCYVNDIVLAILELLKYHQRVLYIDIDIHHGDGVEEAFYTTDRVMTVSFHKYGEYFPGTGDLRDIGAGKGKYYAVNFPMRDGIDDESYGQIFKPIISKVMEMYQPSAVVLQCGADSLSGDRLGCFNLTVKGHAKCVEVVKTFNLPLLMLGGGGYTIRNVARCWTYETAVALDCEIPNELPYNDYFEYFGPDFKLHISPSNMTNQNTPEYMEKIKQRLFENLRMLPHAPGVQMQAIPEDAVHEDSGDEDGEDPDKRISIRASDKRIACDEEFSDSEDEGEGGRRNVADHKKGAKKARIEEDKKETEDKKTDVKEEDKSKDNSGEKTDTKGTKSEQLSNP
Histone deacetylase 1, sequence (Q13547 whole entry): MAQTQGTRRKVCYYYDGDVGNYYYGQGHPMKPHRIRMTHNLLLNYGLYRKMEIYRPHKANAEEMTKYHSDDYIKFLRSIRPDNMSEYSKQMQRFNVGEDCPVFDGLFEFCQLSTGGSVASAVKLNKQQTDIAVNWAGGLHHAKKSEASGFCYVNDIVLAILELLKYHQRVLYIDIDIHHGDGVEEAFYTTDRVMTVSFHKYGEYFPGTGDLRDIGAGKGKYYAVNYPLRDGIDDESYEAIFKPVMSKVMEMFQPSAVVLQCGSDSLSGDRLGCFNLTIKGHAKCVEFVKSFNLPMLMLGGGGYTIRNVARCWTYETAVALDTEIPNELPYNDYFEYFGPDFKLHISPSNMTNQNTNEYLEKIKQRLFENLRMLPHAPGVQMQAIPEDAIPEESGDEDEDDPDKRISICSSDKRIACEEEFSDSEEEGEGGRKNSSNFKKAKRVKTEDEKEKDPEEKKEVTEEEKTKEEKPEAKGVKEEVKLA
Histone deacetylase 3, sequence (O15379 whole entry): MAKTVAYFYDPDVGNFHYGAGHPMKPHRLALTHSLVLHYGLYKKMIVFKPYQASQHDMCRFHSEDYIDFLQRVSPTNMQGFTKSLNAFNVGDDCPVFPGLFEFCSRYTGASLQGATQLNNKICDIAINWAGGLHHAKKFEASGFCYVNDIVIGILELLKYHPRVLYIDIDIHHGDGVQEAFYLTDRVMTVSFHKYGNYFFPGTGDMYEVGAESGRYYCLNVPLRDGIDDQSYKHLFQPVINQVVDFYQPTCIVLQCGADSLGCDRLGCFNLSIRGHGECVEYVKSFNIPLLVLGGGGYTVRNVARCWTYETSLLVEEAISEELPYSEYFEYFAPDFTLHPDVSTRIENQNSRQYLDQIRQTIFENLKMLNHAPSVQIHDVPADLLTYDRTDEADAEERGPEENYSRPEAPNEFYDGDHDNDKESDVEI

In general, IC50 refers to the point on the concentration scale where inhibition reaches its midpoint. In the case of `C[C@@]12CSC(=N1)c1csc(n1)CNC(=O)C[C@@H](/C=C/CCS)OC(=O)[C@H](Cc1ccc(O)cc1)NC2=O`, the IC50 at Histone deacetylase 1 is 0.21 nM; against Histone deacetylase 2, 1.1 nM; at Histone deacetylase 3, 0.38 nM; on Histone deacetylase 8 it was “Not Active”.

On to `C[C@@]12CSC(=N1)c1csc(n1)CNC(=O)C[C@@H](/C=C/CCS)OC(=O)[C@H](Cc1c[nH]cn1)NC2=O`, for which the IC50 was 0.2 nM against Histone deacetylase 1, 1.4 nM at Histone deacetylase 2, 1.1 nM against Histone deacetylase 3 and “Not Active” against Histone deacetylase 8.

For `C[C@@]12CSC(=N1)c1csc(n1)CNC(=O)C[C@@H](/C=C/CCS)OC(=O)[C@H](CC(=O)O)NC2=O`, the 50% inhibitory concentration (IC50) was 39 nM at Histone deacetylase 1, 150 nM on Histone deacetylase 2, 100 nM against Histone deacetylase 3 and “Not Active” at Histone deacetylase 8.

For the compound `C[C@@]12CSC(=N1)c1csc(n1)CNC(=O)C[C@@H](/C=C/CCS)OC(=O)[C@H](CCCN)NC2=O`, the IC50 against Histone deacetylase 1 is 3.3 nM; on Histone deacetylase 2 it was 6.3 nM; against Histone deacetylase 3, 6 nM; at Histone deacetylase 8, “Not Active”.

For the compound `CC(C)(C)OC(=O)n1cnc(C[C@@H]2NC(=O)[C@]3(C)CSC(=N3)c3csc(n3)CNC(=O)C[C@@H](/C=C/CCS)OC2=O)c1`, the IC50 turned out to be 0.62 nM against Histone deacetylase 1 and 540 nM at Histone deacetylase 8 (read-out: IC50).

`CC(C)(C)OC(=O)NCC[C@@H]1NC(=O)[C@]2(C)CSC(=N2)c2csc(n2)CNC(=O)C[C@@H](/C=C/CCS)OC1=O`: the IC50 against Histone deacetylase 1 was 2.3 nM; against Histone deacetylase 2, 3.1 nM; on Histone deacetylase 3 it was 4.2 nM; on Histone deacetylase 8, “Not Active”.

As for `C[C@@]12CSC(=N1)c1csc(n1)CNC(=O)C[C@@H](/C=C/CCS)OC(=O)[C@H](Cc1ccccc1)NC2=O`, the IC50 at Histone deacetylase 1 is 0.29 nM; on Histone deacetylase 2 it was 1.7 nM; against Histone deacetylase 3, 0.68 nM; against Histone deacetylase 8, “Not Active”.

Turning to `C[C@@]12CSC(=N1)c1csc(n1)CNC(=O)C[C@@H](/C=C/CCS)OC(=O)[C@H](CCN)NC2=O`, the IC50 against Histone deacetylase 1 was 5.5 nM; against Histone deacetylase 2, 21 nM; at Histone deacetylase 3, 7.8 nM; at Histone deacetylase 8, “Not Active”.

In the case of `CC(C)(C)OC(=O)NCCC[C@@H]1NC(=O)[C@]2(C)CSC(=N2)c2csc(n2)CNC(=O)C[C@@H](/C=C/CCS)OC1=O`, the IC50 against Histone deacetylase 1 stood at 0.96 nM; against Histone deacetylase 2, 1.4 nM; against Histone deacetylase 3 it was 1.8 nM; at Histone deacetylase 8 (read-out: IC50), 790 nM.
